In patent publication US20220375563A1, “METHOD AND APPARATUS FOR INDIVIDUALIZED ADMINISTRATION OF MEDICAMENTS FOR ENHANCED SAFE DELIVERY WITHIN A THERAPEUTIC RANGE” (UNIVERSITY OF MARYLAND, BALTIMORE, priority 2019, published 2022):
Like-named read-outs stand apart in the source and are kept apart here.

Tests used:
[1] = Therapeutic index (ratio between upper/lower bounds of therapeutic window); format: in vivo
Protocol: In various example embodiments, dosing is determined using some or all the steps of method 300 for medicaments listed in the following tables. For each medicament listed, a concentration window W or therapeutic index is listed in a third column. The therapeutic index (TI, also referred to as therapeutic ratio) is a quantitative measurement of the relative safety of a drug. It is a comparison of the amount of a therapeutic agent that causes the therapeutic effect to the amount that causes toxicity. As proposed herein, a cost function g(y) is based, at least in part, on a value in this third column. The Koopman Expectation is used in Equation 11 or Equation 12 with a quadrature procedure to deduce an optimum range or subset of the dosing range listed in the second column.

[2] = cited from earlier work; for Concentration range: Table 1 anti-epileptics, * uncertain reference range, ** well defined toxic range
[3] = Table 1 anti-epileptics; printed in place of a dose range; cited from earlier work

For `CC1CNc2c(cccc2S(=O)(=O)N[C@@H](CCCNC(=N)N)C(=O)N2CC[C@@H](C)C[C@@H]2C(=O)O)C1` (stereo partly shown) [Argatroban], the Therapeutic index ([1]; Table 5 anticoagulants) was 1.7.
In the case of `NC(=O)N1c2ccccc2C=Cc2ccccc21` [Carbamazepine], the Therapeutic window ([2]; Table 7 antiepileptics) is given as 4 to 12 mg/L and the Therapeutic index ([1]; Table 7 antiepileptics) is given as 3.
In the case of `CN1C(=O)CC(=O)N(c2ccccc2)c2cc(Cl)ccc21` [Clobazam], the Concentration range [2] is listed as “(0.03-0.3 mg/L)”.
In the case of `O=C1CN=C(c2ccccc2Cl)c2cc([N+](=O)[O-])ccc2N1` [Clonazepam], the Concentration range [2] is listed as “(0.02-0.07 mg/L)”.
For `[H]/N=C(/N)c1ccc(NCc2nc3cc(C(=O)N(CCC(=O)O)c4ccccn4)ccc3n2C)cc1` [Dabigatran], the Concentration/biomarker range ([2]; Table 2 anticoagulants) is listed as “(60-200 mg/L or” and the Therapeutic index ([1]; Table 5 anticoagulants) is listed as 1.7.
In the case of `C[C@H]1O[C@@H](O[C@H]2[C@@H](O)C[C@H](O[C@H]3[C@@H](O)C[C@H](O[C@H]4CC[C@@]5(C)[C@H](CC[C@@H]6[C@@H]5C[C@@H](O)[C@]5(C)[C@@H](C7=CC(=O)OC7)CC[C@]65O)C4)O[C@@H]3C)O[C@@H]2C)C[C@H](O)[C@@H]1O` [Digoxin], the Concentration/biomarker range ([2]; Table 3 antiarrhythmics, AF) is listed as “(0.8-2: AF” and the Concentration/biomarker range ([2]; Table 3 antiarrhythmics, Cl) is listed as 0.5-1: Cl).
In the case of `CCC1(C)CC(=O)NC1=O` (stereo not shown) [Ethosuximide], the Concentration range [2] is listed as “(40-100 mg/L)”.
For `CO[C@H]1C[C@@H]2CC[C@@H](C)[C@@](O)(O2)C(=O)C(=O)N2CCCC[C@H]2C(=O)O[C@H]([C@H](C)C[C@@H]2CC[C@@H](OCCO)[C@H](OC)C2)CC(=O)[C@H](C)/C=C(\C)[C@@H](O)[C@@H](OC)C(=O)[C@H](C)C[C@H](C)/C=C/C=C/C=C/1C` [Everolimus], the “Small change in concentration may lead to failure/serious AE (concentration range)” value ([2]; Table 4 immunosuppressants) is listed as “(3-8 ng/mL)”.
For `NC(=O)OCC(COC(N)=O)c1ccccc1` [Felbamate], the Concentration range [2] is given as “(30-60 mg/L)*”, the Therapeutic window ([2]; Table 7 antiepileptics) is given as 30 to 60 mg/L and the Therapeutic index ([1]; Table 7 antiepileptics) is given as 2.
For `NCC1(CC(=O)O)CCCCC1` [Gabapentin], the Concentration range [2] is listed as “(2-20 mg/L)”.
For `Nc1nnc(-c2cccc(Cl)c2Cl)c(N)n1` [Lamotrigine], the Concentration range [2] is listed as “(3-14 mg/L)”, the Therapeutic window ([2]; Table 7 antiepileptics) is listed as 3 to 14 mg/L and the Therapeutic index ([1]; Table 7 antiepileptics) is listed as 4.7.
In the case of `CC[C@@H](C(N)=O)N1CCCC1=O` [Levetiracetam], the Concentration range [2] is listed as “(12-46 mg/L)”.
For `COc1c(C)c2c(c(O)c1C/C=C(\C)CCC(=O)O)C(=O)OC2` [Mycophenolate], the “Small change in concentration may lead to failure/serious AE (exposure range)” value ([2]; Table 4 immunosuppressants, not in label) is listed as “(30-60 mg*h/L”.
For `CCC1(c2ccccc2)C(=O)NC(=O)NC1=O` [Phenobarbital], the Concentration range [2] is given as “(10-40 mg/L)”.
For `O=C1NC(=O)C(c2ccccc2)(c2ccccc2)N1` [Phenytoin], the Concentration range [2] is listed as “(10-20 mg/L)”, the Therapeutic window ([2]; Table 7 antiepileptics) is listed as 10 to 20 mg/L and the “Dose range: PK note” value [3] is listed as “(non-linear PK)”. It also gave a Therapeutic index ([1]; Table 7 antiepileptics) of 2.
For `CCC1(c2ccccc2)C(=O)NCNC1=O` [Primidone], the Concentration range [2] is listed as “(5-10 mg/L)”.
In the case of `C=C[C@H]1C[N@@]2CC[C@H]1C[C@@H]2[C@@H](O)c1ccnc2ccc(OC)cc12` [Quinidine], the Concentration/biomarker range ([2]; Table 3 antiarrhythmics) is given as “(2-5 mg/L)”, the Therapeutic window ([2]; Table 6 antiarrhythmics) is given as 2 to 5 mg/L and the Therapeutic index ([1]; Table 6 antiarrhythmics) is given as 2.5.
For `CO[C@H]1C[C@@H]2CC[C@@H](C)[C@@](O)(O2)C(=O)C(=O)N2CCCC[C@H]2C(=O)O[C@H]([C@H](C)C[C@@H]2CC[C@@H](O)[C@H](OC)C2)CC(=O)[C@H](C)/C=C(\C)[C@@H](O)[C@@H](OC)C(=O)[C@H](C)C[C@H](C)/C=C/C=C/C=C/1C` [Sirolimus], the “Small change in concentration may lead to failure/serious AE (concentration range)” value ([2]; Table 4 immunosuppressants) is listed as “(12-20 ng/mL)”.
In the case of `C=CC[C@@H]1/C=C(\C)C[C@H](C)C[C@H](OC)[C@H]2O[C@@](O)(C(=O)C(=O)N3CCCC[C@H]3C(=O)O[C@H](/C(C)=C/[C@@H]3CC[C@@H](O)[C@H](OC)C3)[C@H](C)[C@@H](O)CC1=O)[C@H](C)C[C@@H]2OC` [Tacrolimus], the “Small change in concentration may lead to failure/serious AE (concentration range)” value ([2]; Table 4 immunosuppressants) is given as “(5-15 ng/mL)”.
In the case of `Cc1ccsc1C(=CCCN1CCC[C@@H](C(=O)O)C1)c1sccc1C` [Tiagabine], the Concentration range [2] is listed as “(0.02-0.2 mg/L)*”, the Therapeutic window ([2]; Table 7 antiepileptics) is listed as 0.02 to 0.2 mg/L and the Therapeutic index ([1]; Table 7 antiepileptics) is listed as 10.
For `CC1(C)O[C@@H]2[C@@H](CO[C@@]3(COS(N)(=O)=O)OC(C)(C)O[C@@H]23)O1` [Topiramate], the Concentration range [2] is listed as “(5-20 mg/L)”, the Therapeutic window ([2]; Table 7 antiepileptics) is listed as 5 to 20 mg/L and the Therapeutic index ([1]; Table 7 antiepileptics) is listed as 4.
For `CCCC(CCC)C(=O)O` [Valproic acid], the Concentration range [2] is given as “(50-100 mg/L)”, the Therapeutic window ([2]; Table 7 antiepileptics) is given as 50 to 100 mg/L and the “Dose range: PK note” value [3] is given as “(non-linear PK)”. It also gave a Therapeutic index ([1]; Table 7 antiepileptics) of 2.
In the case of `C=CC(N)CCC(=O)O` (stereo not shown) [Vigabatrin], the Concentration range [2] is listed as “(0.8-36 mg/L)”.
Work on `CC(=O)CC(c1ccccc1)c1c(O)c2ccccc2oc1=O` (stereo not shown) [Warfarin] yielded a Therapeutic index ([1]; Table 5 anticoagulants) of 1.5.
For `NS(=O)(=O)Cc1noc2ccccc12` [Zonisamide], the Concentration range [2] is given as “(10-40 mg/L)**”, the Therapeutic window ([2]; Table 7 antiepileptics) is given as 10 to 40 mg/L and the Therapeutic index ([1]; Table 7 antiepileptics) is given as 4.
